Laboratory results taken from ChEMBL document CHEMBL3885861, “Open TG-GATES”.

Organism: Rattus norvegicus
Assay: Open TG-GATES - Regimen: Single
Assay type: toxicity, organism-based, Sprague-Dawley
Parameters: regimen Single, gender Male, age 6 weeks
Settings: in vivo, po, 10 mg/kg, route gavage, dose level Middle; for APTT / Bas / Eos / Fbg / Hb / Ht / Lym / MCH / MCHC / MCV / Mono / Neu / PT / Plat / RBC / Ret / WBC: tissue Blood; for KIDNEY_L / KIDNEY_R / KIDNEY_TOTAL: tissue Kidney; for LIVER: tissue Liver; for A/G / ALP / ALT / AST / BUN / CRE / Ca / Cl / DBIL / GLC / IP / K / LDH / Na / PL / RALB / TBIL / TC / TG / TP / gamma-GTP: tissue Plasma

`C=CCO` [ALLYL ALCOHOL] showed a TERMINAL_BW (3 h) of 220.3 g, an APTT (3 h) of 20.3 s and a Bas (3 h) of 0%. It also gave an Eos (3 h) of 1%, a Fbg (3 h) of 217.8 mg/dL and a Hb (3 h) of 13.7 g/dL. It also gave a Ht (3 h) of 39.5%, a Lym (3 h) of 79.4% and an MCH (3 h) of 21.3 pg. It also gave an MCHC (3 h) of 34.9%, an MCV (3 h) of 61 fL and a Mono (3 h) of 2.8%. For the same compound, the Neu (3 h) was 16.8%, the PT (3 h) was 12.5 s and the Plat (3 h) was 140.4 x10_4/uL. For the same compound, the RBC (3 h) was 648.2 x10_4/ul, the Ret (3 h) was 6.3% and the WBC (3 h) was 94.5 x10_2/uL. For the same compound, the KIDNEY_L (3 h) was 1 g, the KIDNEY_R (3 h) was 1 g and the KIDNEY_TOTAL (3 h) was 2 g. The LIVER (3 h) was 9.9 g, the A/G (3 h) was 1.5 and the ALP (3 h) was 1147.4 IU/L. The ALT (3 h) was 37.6 IU/L, the AST (3 h) was 69.6 IU/L and the BUN (3 h) was 10.2 mg/dL. For the same compound, the CRE (3 h) was 0.4 mg/dL, the Ca (3 h) was 10.6 mg/dL and the Cl (3 h) was 100.2 meq/L. For the same compound, the DBIL (3 h) was 0.3 mg/dL, the GLC (3 h) was 197.8 mg/dL and the IP (3 h) was 8.6 mg/dL. The K (3 h) was 3.7 meq/L, the LDH (3 h) was 209.2 IU/L and the Na (3 h) was 139.4 meq/L. It also gave a PL (3 h) of 170.4 mg/dL, an RALB (3 h) of 3.4 g/dL and a TBIL (3 h) of 0.4 mg/dL. It also gave a TC (3 h) of 77 mg/dL, a TG (3 h) of 204.8 mg/dL and a TP (3 h) of 5.6 g/dL. The gamma-GTP (3 h) was 1 IU/L, the TERMINAL_BW (6 h) was 220.1 g and the APTT (6 h) was 19.1 s. It also gave a Bas (6 h) of 0%, an Eos (6 h) of 1% and a Fbg (6 h) of 226.8 mg/dL. It also gave a Hb (6 h) of 13.2 g/dL, a Ht (6 h) of 38.1% and a Lym (6 h) of 76%. The MCH (6 h) was 22 pg, the MCHC (6 h) was 34.5% and the MCV (6 h) was 63.7 fL. It also gave a Mono (6 h) of 3.2%, a Neu (6 h) of 19.2% and a PT (6 h) of 12.1 s. The Plat (6 h) was 132 x10_4/uL, the RBC (6 h) was 598 x10_4/ul and the Ret (6 h) was 7.1%. For the same compound, the WBC (6 h) was 99.4 x10_2/uL, the KIDNEY_L (6 h) was 1 g and the KIDNEY_R (6 h) was 1 g. It also gave a KIDNEY_TOTAL (6 h) of 1.9 g, an LIVER (6 h) of 9.8 g and an A/G (6 h) of 1.4. For the same compound, the ALP (6 h) was 1136.8 IU/L, the ALT (6 h) was 35 IU/L and the AST (6 h) was 74 IU/L. It also gave a BUN (6 h) of 8 mg/dL, a CRE (6 h) of 0.4 mg/dL and a Ca (6 h) of 10.7 mg/dL. For the same compound, the Cl (6 h) was 102.4 meq/L, the DBIL (6 h) was 0.2 mg/dL and the GLC (6 h) was 200.2 mg/dL. For the same compound, the IP (6 h) was 9.1 mg/dL, the K (6 h) was 3.8 meq/L and the LDH (6 h) was 221.4 IU/L. For the same compound, the Na (6 h) was 141.2 meq/L, the PL (6 h) was 164.2 mg/dL and the RALB (6 h) was 3.2 g/dL. For the same compound, the TBIL (6 h) was 0.2 mg/dL, the TC (6 h) was 77.8 mg/dL and the TG (6 h) was 114.4 mg/dL. The TP (6 h) was 5.5 g/dL, the gamma-GTP (6 h) was 1.2 IU/L and the TERMINAL_BW (9 h) was 215.5 g. The APTT (9 h) was 18 s, the Bas (9 h) was 0% and the Eos (9 h) was 1%. The Fbg (9 h) was 217 mg/dL, the Hb (9 h) was 13.3 g/dL and the Ht (9 h) was 38.6%. It also gave a Lym (9 h) of 80.4%, an MCH (9 h) of 21.5 pg and an MCHC (9 h) of 34.4%. It also gave an MCV (9 h) of 62.6 fL, a Mono (9 h) of 2.2% and a Neu (9 h) of 16.2%. It also gave a PT (9 h) of 12.3 s, a Plat (9 h) of 125.1 x10_4/uL and an RBC (9 h) of 617.6 x10_4/ul. It also gave a Ret (9 h) of 6.5%, a WBC (9 h) of 74.3 x10_2/uL and a KIDNEY_L (9 h) of 0.9 g. The KIDNEY_R (9 h) was 0.9 g, the KIDNEY_TOTAL (9 h) was 1.9 g and the LIVER (9 h) was 8.9 g. It also gave an A/G (9 h) of 1.5, an ALP (9 h) of 1058 IU/L and an ALT (9 h) of 29 IU/L. The AST (9 h) was 62 IU/L, the BUN (9 h) was 9.2 mg/dL and the CRE (9 h) was 0.3 mg/dL. It also gave a Ca (9 h) of 10.5 mg/dL, a Cl (9 h) of 101.8 meq/L and a DBIL (9 h) of 0.07 mg/dL. The GLC (9 h) was 203.8 mg/dL, the IP (9 h) was 10.3 mg/dL and the K (9 h) was 3.8 meq/L. For the same compound, the LDH (9 h) was 163.4 IU/L, the Na (9 h) was 140 meq/L and the PL (9 h) was 132.6 mg/dL. For the same compound, the RALB (9 h) was 3.3 g/dL, the TBIL (9 h) was 0.1 mg/dL and the TC (9 h) was 67 mg/dL. The TG (9 h) was 60.6 mg/dL, the TP (9 h) was 5.5 g/dL and the gamma-GTP (9 h) was 0.8 IU/L. For the same compound, the TERMINAL_BW (24 h) was 231.2 g, the APTT (24 h) was 17.9 s and the Bas (24 h) was 0%. The Eos (24 h) was 1%, the Fbg (24 h) was 232.2 mg/dL and the Hb (24 h) was 13.5 g/dL. The Ht (24 h) was 39.7%, the Lym (24 h) was 79.2% and the MCH (24 h) was 20.8 pg. The MCHC (24 h) was 34%, the MCV (24 h) was 61 fL and the Mono (24 h) was 2.8%. For the same compound, the Neu (24 h) was 16.6%, the PT (24 h) was 11.9 s and the Plat (24 h) was 127.4 x10_4/uL. For the same compound, the RBC (24 h) was 650.8 x10_4/ul, the Ret (24 h) was 6% and the WBC (24 h) was 93.9 x10_2/uL. The KIDNEY_L (24 h) was 1 g, the KIDNEY_R (24 h) was 1 g and the KIDNEY_TOTAL (24 h) was 1.9 g. The LIVER (24 h) was 11.1 g, the A/G (24 h) was 1.3 and the ALP (24 h) was 1042.2 IU/L. It also gave an ALT (24 h) of 38.2 IU/L, an AST (24 h) of 65 IU/L and a BUN (24 h) of 15 mg/dL. It also gave a CRE (24 h) of 0.4 mg/dL, a Ca (24 h) of 10.8 mg/dL and a Cl (24 h) of 102.4 meq/L. The DBIL (24 h) was 0.08 mg/dL, the GLC (24 h) was 203.6 mg/dL and the IP (24 h) was 7.2 mg/dL. For the same compound, the K (24 h) was 3.8 meq/L, the LDH (24 h) was 200.4 IU/L and the Na (24 h) was 140.2 meq/L. The PL (24 h) was 152.6 mg/dL, the RALB (24 h) was 3.1 g/dL and the TBIL (24 h) was 0.1 mg/dL. It also gave a TC (24 h) of 79.4 mg/dL, a TG (24 h) of 99.4 mg/dL and a TP (24 h) of 5.5 g/dL. For the same compound, the gamma-GTP (24 h) was 1 IU/L.
